Test [1] has as its system RNases from patients affected by cancers, auto-immune diseases or viral pathologies. In words: Effect of iron on in vitro activity of RNases from patients. In kind it is biochemical, human. Particulars: cancers (leukemia, solid cancers). How it is done: (§1) Bioparyl dissolved in distilled water (pH 7.0, 5 mg/ml) is used (0.01 to 0.05 ml). Incubation medium (0.15 ml final volume) contains: Tris-HCl buffer, 10^-2 M pH 7.60: 0.05 ml; ^3 H-RNA (r-RNA or 4 S RNA), 100 μg, 15,000 CPM: 0.05 ml; ten-times diluted plasma: 0.01 to 0.05 ml. After incubation at 36° C. for 10 min. (water bath) (generally necessary conditions but that may vary in case of necessity), the reaction is stopped by addition of 3 ml trichloroacetic acid (TCA) (5%); the tubes are cooled in order to assure a good precipitation of proteins and undegraded ^3 H-RNA.
(§2) The precipitate is filtered on glass millipore (GF/C, Whatman), washed with 5% TCA solution then with 95° ethyl alcohol. The filters are dried and the radioactivity determined in a scintillation spectrometer. The results are expressed as percent of non-degraded radioactive RNA, the radioactivity of initial intact RNA being taken as 100%.
(§3) One knows that the RNases enable the furnishing of the RNA primers necessary for the replication of DNA, and that the primers accepted by DNA from healthy tissues are not the same as the primers required for replication of DNA from cancer tissues. Thus, regulation of RNases (enzymes able to provide primers in cells)is a capital phenomenon in carcinology and virology.

The test system of test [2] is RNases from human fibrosis skin. In words: In vitro RNase activity of radiation-induced skin fibrosis extract (r-RNA degradation). It counts as biochemical. The settings on record: FIG. 7. How it is done: Sample of skin fibrosis induced by radiation has been broken in a mortar (4° C.) in the presence of Tris-HCl buffer 0.02M containing 0.06M KCl and 0.001M MgCl2. Final volume: 1.5 ml. The activity of RNases present in this extract has been tested with 4 S RNA and ribosomal RNA (r-RNA); 0.01; 0.02; 0.03 and 0.04 ml of enzyme extract were incubated in the presence of radioactive ^3 H-r-RNA or ^3 H-4 S RNA. Incubation time: 15 min. at 36° C. The results are illustrated in FIG. 7. Degradation of labelled RNA is linear in function of increasing concentration of the extract. r-RNA is more rapidly degraded than 4 S RNA. […] Ferric iron (FeCl3), at low concentrations, stimulates r-RNA degradation; but at higher concentrations it inhibits it.

Test [3] has as its system RNases in plasma of healthy persons. In words: Effect of iron on in vitro activity of RNases of healthy persons. In kind it is biochemical, human. The settings on record: FIG. 5. The method, then:
as §1, §2, §3

Consider `[Cl][Fe]([Cl])[Cl]` [Ferric iron], for which the “in vitro activity of RNases from patients under ferric iron” value in test [1] is “strongly accelerates”. Further, the “r-RNA degradation by fibrosis skin RNases, FeCl3 higher concentrations” value in test [2] (at higher concentrations) is recorded as “inhibits”. Besides, the “r-RNA degradation by fibrosis skin RNases, FeCl3 low concentrations” value in test [2] (at low concentrations) is “stimulates”. Besides, the “in vitro activity of RNases of healthy persons under iron” value in test [3] was “without effect”.

The values above are taken from US5413787A, “Bioparyl, a biological regulator, active against various pathologies” (priority 1988, dated 1995).
